In data set [1] the target is T1, human NK1 receptor (Homo sapiens, UniProt P25103).
T1 construct: expressed in transfected cells; host or cells: 293T cells (RIKEN), transient transfection with pcDNA3.1(-) plasmid
In words: Inhibitory effect on human NK1 receptor (substance P-induced increase in intracellular calcium concentration). The note with it: HEK-293T; substance P 0.1 μM; compound 1 μM; human NK1 receptor-expressing 293T cells; vehicle = 100%; read-out: SPRR (%) (Substance P-Response Remaining, intracellular calcium concentration). It is filed as cell-based. On the procedure: Inhibitory Effect on Human NK1 Receptor
(1) Preparation of Human NK1 Receptor-Expressing Cells
Human NK1 receptor-expressing cells were prepared by the same methods as those described in 2-3 and 2-4 of Test Example 1.
(2) Study on Inhibitory Effect on Increase in Intracellular Calcium Concentration
The human NK1 receptor-expressing cells were washed with 300 μL/well of a washing solution (20 mM HEPES/Hanks Balanced Salt Solution (HBSS) pH7.3). A fluorescent calcium indicator (Fluo-4 Direct Calcium Assay Kit, Life Technologies, containing 0.42 mM probenecid and 0.1% bovine serum albumin, prepared according to the protocol of the product) was added to the wells at 150 μL/well, and the plate was incubated at 37° C. for 30 minutes in an incubator. Then, DMSO solutions of a test compound, which were prepared at an 80-time higher concentration using 100% dimethyl sulfoxide (DMSO), were added to the wells at 2.5 μL/well (final concentrations of 0.1, 1 and 10 μM), and the solutions were mixed. Then, the plate was further incubated at 37° C. for 30 minutes in an incubator. After 30 minutes, the intracellular calcium concentrations were measured immediately.
The intracellular calcium concentrations were each measured as a fluorescent signal using FDSS® 7000 (Hamamatsu Photonics). A substance P (Peptide Institute, Inc.) solution which was prepared at 0.4 μM or 4 μM using an assay buffer (20 mM HEPES/Hanks Balanced Salt Solution (HBSS) pH 7.3 containing 0.1% bovine serum albumin) was added automatically to each well at 50 μL/well (final concentration of 0.1 or 1 μM) 10 seconds after starting reading, and the fluorescent signal was measured up to 120 seconds.
The intracellular calcium concentration (%) of the cells to which a test compound was added was calculated by the equation below, where the fluorescent signal of the group to which the vehicle (DMSO) was added was regarded as 100%, and the fluorescent signal before the addition of substance P was regarded as 0%. Intracellular calcium concentration (%)=(Fluorescent signal of test compound addition group)/(Fluorescent signal of vehicle addition group)×100
The intracellular calcium concentration (%) calculated was regarded as the remaining agonist activity of substance P (Substance P-Response Remaining: SPRR). In the table, Ex. No. means the Example number. SPRR (%) means the value obtained when the concentration of substance P was 0.1 μM and the concentration of the compound was 1 μM.
A general note: A change in cytosolic calcium serves as a functional read-out for many receptors and channels.

Data set [2] addresses T1, human NK1 receptor. Kind of data set: Affinity for human NK1 receptor (125I-substance P receptor binding test, membrane fraction). Particulars: membrane fraction of human NK1 receptor-expressing 293T cells, room temperature 60 minutes, read-out: pIC50 (inverse logarithm of the concentration required for 50% inhibition of 125I-substance P binding) (converted). On the procedure:
Affinity for Human NK1 Receptor
(3) Measurement of Binding Affinity to Human NK1 Receptor
(3-1) Preparation of Membrane Fraction from Human NK1 Receptor-Expressing Cells
Human NK1 receptor-expressing cells were prepared in a 175 cm^2 culture flask (Nippon Becton Dickinson). The formation of a complex of the human NK1 receptor expression plasmid and Lipofectamine 2000 was performed by calculating the culture area ratio and increasing the scale of the method described in the above 2-4 by the ratio. The human NK1 receptor-expressing cells were collected in a buffer solution for the membrane fraction preparation (50 mM Tris (Wako Pure Chemical), 120 mM sodium chloride (Wako Pure Chemical Industries), 5 mM potassium chloride (Wako Pure Chemical Industries), 1 mM ethylenediaminetetraacetic acid (Sigma), 0.002 mg/mL chymostatin (Peptide Institute), 0.04 mg/bacitracin (Wako Pure Chemical Industries), 0.005 mg/mL phosphoramidon (Peptide Institute) and 0.5 mM phenylmethylsulfonyl fluoride (Wako Pure Chemical Industries), pH7.4) and centrifuged at 1,880 g for 10 minutes, and the cell sediment was suspended in the buffer solution for the membrane fraction preparation. After freezing and thawing the cells once, the cells were homogenized using a Dounce-type homogenizer (cooled on ice, 1000 rpm, 20 times). The homogenized cell suspension was centrifuged at 20,000 rpm for 10 minutes, and the supernatant was removed to obtain cell sediment. The cell sediment was suspended again in the buffer solution for the membrane fraction preparation and homogenized using a Dounce-type homogenizer (cooled on ice, 1000 rpm, 30 times). The cell suspension was centrifuged at 20,000 rpm for 10 minutes, and the supernatant was removed to obtain cell sediment. The same homogenization and centrifugation were repeated again, and final cell sediment was obtained. The final cell sediment was suspended in a buffer solution for the receptor binding test (50 mM Tris (Wako Pure Chemical Industries), 3 mM manganese chloride (Wako Pure Chemical Industries), 0.002 mg/mL chymostatin (Peptide Institute), 0.04 mg/bacitracin (Wako Pure Chemical Industries) and 0.02% bovine serum albumin (Sigma), pH 7.4), and the protein concentration was measured using BCA Protein Assay Kit (Pierce).
(3-2) Receptor Binding Test
The buffer solution for the receptor binding test was dispensed to the wells of a 96-well assay plate (Greiner) at 22.5 μL/well. DMSO solutions of a test compound, which were prepared at an 80-time higher concentration using 100% dimethyl sulfoxide (DMSO), were added to the wells at 2.5 μL/well (final concentrations of 1 nM to 100 nM), and the solutions were mixed. As a radiolabeled ligand, ^125I-substance P (Substance P, [^125I]Tyr^8-, PerkinElmer) was used. ^125I-substance P was diluted with the buffer solution for the receptor binding test to a concentration resulting in […] and added to the 96-well assay plate, and the solutions were mixed. The membrane fraction prepared from the human NK1 receptor-expressing cells was diluted with the buffer solution for the receptor binding test to a concentration resulting in 8 to 10 μg/well, suspended until the suspension became in such a homogenous state that the suspension could flow through a 27G injection needle smoothly and then added to the 96-well assay plate at 150 μL/well. Then, the plate was incubated at room temperature for 60 minutes while shaking the plate. […]

The target of the next data set is T2, human CYP3A4 (Homo sapiens, UniProt P08684).
T2 construct: purchased BD Biosciences
Kind of data set: Inhibitory effect on CYP3A4 (Luciferin-IPA). It is filed as in vitro ADME. The note with it: test compound 10 μM, 30-minutes pre-incubation, Luciferin-IPA 3 μM. How it is done:
Inhibitory Effect on CYP3A4
The dimethyl sulfoxide (DMSO) solution of the test compound with a concentration 1000 times higher than the evaluation concentration was prepared, and a reaction solution was prepared by diluting the solution. Enzyme reaction was performed by incubating in a potassium phosphate buffer solution (pH 7.4) containing 1 μM to 10 μM test compound, 3.2 mM magnesium chloride, 0.2 pmol human CYP3A4 (BD Biosciences), 0.5 mM reduced nicotinamide adenine dinucleotide phosphate (NADPH) and 3 μM Luciferin-IPA (Promega) at 37° C. for 10 minutes. The volume of the reaction solution was 50 μL/well. The 30-minutes pre-incubation group was incubated at 37° C. for 30 minutes before adding the substrate, the Luciferin-IPA solution (12.5 μL/well). At the end of the enzyme reaction, 50 μL/well of a Luciferin detection reagent (Promega) was added to the wells, and the plate was left at room temperature for 20 minutes. Then, the emission intensities were measured with Infinite M1000 (TECAN), and the enzyme activities (%) relative to the value of the group to which the test compound was not added. As a comparative example, aprepitant, which is an NK1 receptor antagonist, was tested in the same manner.
Test was measured by the above test method, and the results are shown in Table 9 when the concentration of the test compound was 10 μM. In the table, Ex. No. means the Example number, and Pre-incubation (30 min) (%) means the enzyme activities (%) of the 30-minutes pre-incubation groups using the test compounds.

Molecules are shown by their SMILES.

T1 sequence (P25103 whole entry): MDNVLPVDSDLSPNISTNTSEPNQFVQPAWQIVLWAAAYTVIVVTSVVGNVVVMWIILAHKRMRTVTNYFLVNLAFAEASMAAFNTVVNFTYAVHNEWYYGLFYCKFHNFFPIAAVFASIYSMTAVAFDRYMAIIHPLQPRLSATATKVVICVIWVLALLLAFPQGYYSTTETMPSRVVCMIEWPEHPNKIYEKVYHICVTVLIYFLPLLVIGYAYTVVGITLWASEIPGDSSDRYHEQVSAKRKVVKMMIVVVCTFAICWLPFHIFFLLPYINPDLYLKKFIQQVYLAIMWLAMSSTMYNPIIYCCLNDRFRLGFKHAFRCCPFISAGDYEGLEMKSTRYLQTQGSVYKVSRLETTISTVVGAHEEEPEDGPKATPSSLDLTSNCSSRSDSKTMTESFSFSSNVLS
T2 sequence (P08684 whole entry): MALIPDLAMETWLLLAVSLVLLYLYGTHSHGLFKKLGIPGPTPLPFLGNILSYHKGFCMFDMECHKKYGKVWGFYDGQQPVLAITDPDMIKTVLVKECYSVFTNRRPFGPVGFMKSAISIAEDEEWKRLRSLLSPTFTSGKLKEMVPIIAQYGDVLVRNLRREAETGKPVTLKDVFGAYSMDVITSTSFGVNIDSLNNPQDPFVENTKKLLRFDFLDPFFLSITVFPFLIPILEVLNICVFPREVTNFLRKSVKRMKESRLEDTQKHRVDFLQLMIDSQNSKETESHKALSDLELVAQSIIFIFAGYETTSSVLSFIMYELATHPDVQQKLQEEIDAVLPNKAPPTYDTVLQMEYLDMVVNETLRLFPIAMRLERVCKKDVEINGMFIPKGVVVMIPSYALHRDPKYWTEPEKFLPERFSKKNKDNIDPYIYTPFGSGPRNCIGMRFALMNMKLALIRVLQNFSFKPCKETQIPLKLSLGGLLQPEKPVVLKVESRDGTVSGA

`Cc1cc(F)ccc1[C@H]1CN(C2CCC(CC(=O)O)CC2)CC[C@@H]1C(=O)N(C)[C@@H](C)c1cc(C(F)(F)F)cc(C(F)(F)F)c1` (stereo partly drawn) [Example 12, {4-[(3 S,4S)-4-{[(S)-1-(3,5-Bistrifluoromethylphenyl)ethyl]methylcarbamoyl}-3-(4-fluoro-2-methylphenyl)piperidin-1-yl]cyclohexyl}lacetic acid]: the remaining activity at 1 µM at human NK1 receptor [1] stood at 4.9%. On human NK1 receptor [2], the IC50 is 0.282 nM.
For the compound `Cc1cc(F)ccc1[C@H]1CN(C(=O)[C@H]2CC[C@@H](CC(=O)O)CC2)CCN1C(=O)N(C)[C@H](C)c1cc(C(F)(F)F)cc(C(F)(F)F)c1` [Example 2, cis-{4-[(S)-4-{[(R)-1-(3,5-Bistrifluoromethylphenyl)ethyl]methylcarbamoyl}-3-(4-fluoro-2-methylphenyl)piperazine-1-carbonyl]cyclohexyl}acetic acid], at human NK1 receptor [1], the remaining activity at 1 µM is 25%. In addition, the IC50 at human NK1 receptor [2] is 1.38 nM.
For `Cc1cc(F)ccc1[C@H]1CN(CC23CC(C(=O)O)(C2)C3)CCN1C(=O)N(C)[C@H](C)c1cc(C(F)(F)F)cc(C(F)(F)F)c1` [Example 11, 3-[(S)-4-{[(R)-1-(3,5-Bistrifluoromethylphenyl)ethyl]methylcarbamoyl}-3-(4-fluoro-2-methylphenyl)piperazin-1-ylmethyl]bicyclo[1.1.1]pentane-1-carboxylic acid], the remaining activity at 1 µM at human NK1 receptor [1] came to 24%. Besides, the IC50 on human NK1 receptor [2] was 1.91 nM.
In the case of `Cc1cc(F)ccc1[C@H]1CN(C[C@H]2CC[C@@H](C(=O)O)CC2)CCN1C(=O)N(C)[C@H](C)c1cc(C(F)(F)F)cc(C(F)(F)F)c1` [Example 7, cis-4-[(S)-4-{[(R)-1-(3,5-Bistrifluoromethylphenyl)ethyl]methylcarbamoyl}-3-(4-fluoro-2-methylphenyl)piperazin-1-ylmethyl]cyclohexanecarboxylic acid], the remaining activity at 1 µM on human NK1 receptor [1] was found to be 6.6%. Moreover, on human NK1 receptor [2], the IC50 is 2.04 nM.
The matching figures for `Cc1cc(F)ccc1[C@H]1CN(C2CCC(C(=O)O)CC2)CCN1C(=O)N(C)[C@H](C)c1cc(C(F)(F)F)cc(C(F)(F)F)c1` (stereo partly drawn) [Example 6, 4-[(S)-4-{[(R)-1-(3,5-Bistrifluoromethylphenyl)ethyl]methylcarbamoyl}-3-(4-fluoro-2-methylphenyl)piperazin-1-yl]cyclohexanecarboxylic acid]: 14% and 1.7 nM.
For the compound `C[C@@H](O[C@H]1OCCN(Cc2n[nH]c(=O)[nH]2)[C@H]1c1ccc(F)cc1)c1cc(C(F)(F)F)cc(C(F)(F)F)c1` [Aprepitant, aprepitant, reference compound], on human CYP3A4, the “Preincubation (30 min) (%) (enzyme activities relative to group without test compound)” value turned out to be 1.3%.
Regarding `Cc1cc(F)ccc1[C@H]1CN(C[C@H]2CC[C@H](C(=O)O)CC2)CCN1C(=O)N(C)[C@H](C)c1cc(C(F)(F)F)cc(C(F)(F)F)c1` [Example 8, trans-4-[(S)-4-{[(R)-1-(3,5-Bistrifluoromethylphenyl)ethyl]methylcarbamoyl}-3-(4-fluoro-2-methylphenyl)piperazin-1-ylmethyl]cyclohexanecarboxylic acid], the remaining activity at 1 µM at human NK1 receptor [1] was 14%. In addition, the IC50 at human NK1 receptor [2] was 1.86 nM.
Taken in the same sequence, the figures for `Cc1cc(F)ccc1[C@H]1CN(C2CCC(CC(=O)O)CC2)CCN1C(=O)N(C)[C@H](C)c1cc(C(F)(F)F)cc(C(F)(F)F)c1` (stereo partly drawn) [Example 1, {4-[(S)-4-{[(R)-1-(3,5-Bistrifluoromethylphenyl)ethyl]methylcarbamoyl}-3-(4-fluoro-2-methylphenyl)piperazin-1-yl]cyclohexyl}acetic acid] were 15% and 2.24 nM.
Consider `Cc1cc(F)ccc1[C@H]1CN(C(=O)[C@H]2CC[C@H](CC(=O)O)CC2)CCN1C(=O)N(C)[C@H](C)c1cc(C(F)(F)F)cc(C(F)(F)F)c1` [Example 3, trans-{4-[(S)-4-{[(R)-1-(3,5-Bistrifluoromethylphenyl)ethyl]methylcarbamoyl}-3-(4-fluoro-2-methylphenyl)piperazine-1-carbonyl]cyclohexyl}acetic acid], for which the remaining activity at 1 µM on human NK1 receptor [1] worked out at 50%. Further, the IC50 on human NK1 receptor [2] is 1.41 nM.
Taken in the same sequence, the figures for `Cc1cc(F)ccc1[C@H]1CN(Cc2ccc(CC(=O)O)cc2)CCN1C(=O)N(C)[C@H](C)c1cc(C(F)(F)F)cc(C(F)(F)F)c1` [Example 9, {4-[(S)-4-{[(R)-1-(3,5-Bistrifluoromethylphenyl)ethyl]methylcarbamoyl}-3-(4-fluoro-2-methylphenyl)piperazin-1-ylmethyl]phenyl}acetic acid] were 38% and 1.55 nM.
In the case of `Cc1cc(F)ccc1[C@H]1CN(C(=O)N2CCC(CC(=O)O)CC2)CCN1C(=O)N(C)[C@H](C)c1cc(C(F)(F)F)cc(C(F)(F)F)c1` [Example 10, {1-[(S)-4-{[(R)-1-(3,5-Bistrifluoromethylphenyl)ethyl]methylcarbamoyl}-3-(4-fluoro-2-methylphenyl)piperazine-1-carbonyl]piperidin-4-yl}acetic acid], the remaining activity at 1 µM on human NK1 receptor [1] is 30%. At human NK1 receptor [2], the IC50 is 1.17 nM.

The values above are taken from patent US10399949B2, “NK1 receptor antagonist” (KISSEI PHARMACEUTICAL CO., LTD., priority 2015, dated 2019).
